Assay results published in paper PMC6222487 (Molecules : A Journal of Synthetic Chemistry and Natural …, 2018).
Read-outs that look alike come from different tables or passages of the source.

How the values were obtained:
AChE (from electric eel) = biological target: T1, AChE (from electric eel) (Electrophorus electricus, UniProt O42275); test: biochemical; assay type: biochemical; settings: for Selectivity Index = IC50 (BChE)/IC50 (AChE): IC50 BuChE/IC50 AChE; for IC50: mean ± SEM, NA = No potent inhibitory activity
T1 construct: purchased Merck & Co
Method: (§1) Photometric 96-well microplates made from polystyrene (Thermo Scientific, Waltham, […]. USA) were used for measurement purposes.
(§2) AChE and BuChE inhibitory activities were measured by the spectrophotometric method of Ellman, with slight modification. Briefly, all in vitro assays were performed in 0.1 M NaH2PO4/Na2HPO4 buffer, pH 7.4, using a THERMO Enzyme-labeled Instrument. The enzyme solutions were prepared to obtain 2.0 units/mL in 2.0 mL aliquots. The assay medium (1 mL) consisted of phosphate buffer (pH 7.4), 10 μL of the enzyme, 30 μL of 0.01 M DTNB, and 30 μL of substrate (ATC or BTC) at a concentration of 0.01 M. The test and reference compounds were first dissolved in DMSO (5‰) and fetal bovine serum (1‰), and then diluted in 0.1 M NaH2PO4/Na2HPO4 buffer (pH 7.4) to provide a final concentration range. The inhibitors were added to the assay solution containing enzyme, buffer, and DTNB with pre-incubation for 20 min at 37 °C, prior to the addition of the substrate. The activity was determined by measuring the increase in absorbance at 410 nm at 1 min intervals at 37 °C. The data were calculated according to the method described by Ellman et al. Each concentration was assayed in triplicate. Blanks containing all of the components except AChE were included in the analyses.

[1] = biological target: T2, BuChE (from equine serum) (Equus caballus, UniProt P81908); test: biochemical; settings: mean ± SEM
T2 construct: purchased Merck & Co; host or cells: equine serum
Method: as §1, §2

Aβ (1-42) = biological target: T3, Aβ (1-42) (Homo sapiens, UniProt P05067); test: biochemical; settings: self-induced aggregation, thioflavin-T; Aβ 20 μM, 37 °C, 24 h; NA = No potent inhibitory activity
T3 construct: Aβ (1-42) peptide (Sigma-Aldrich); purchased Sigma-Aldrich
Method: A Thioflavin T-based fluorometric assay was performed in order to investigate the self-induced Aβ (1-42) aggregation. Briefly, compounds to be tested were firstly dissolved in DMSO to obtain a 10 mM solution and then diluted in phosphate buffer (pH 7.4) to provide a final concentration range. […] After incubation, thioflavin-T (5 μM in 50 mM glycine-NaOH buffer, pH 8.0) was added into the above 96-well microplate and the samples were diluted to a final volume of 150 μL. […] Each inhibitor was run in triplicate.

HepG2 cells = assay type: cell-based
Method: One of the best documented side-effects of the drug discovery and development of AD is cytotoxicity. To probe whether such a type of target compounds involves cytotoxic effects, we respectively treated HepG2 cells and SH-SY5Y cells with several concentrations of the corresponding compound. Cell viability was determined by a CCK-8 assay. […].
HepG2 cells (human hepatocellular liver carcinoma cell line from American Type Culture Collection, ATCC) were cultured in Eagle’s minimum essential medium (EMEM) supplemented with 10% heat-inactivated fetal bovine serum (FBS), and 100 U/mL of penicillin/streptomycin (Gino Biomedical Technology Co. LTD., Hangzhou, China). Cultures were seeded into flasks containing supplemented medium and maintained at 37 °C in a humidified atmosphere of 5% CO2. For assays, cells (1.0 × 10^5 cells/well) were seeded in a 96-well plate in complete medium, the medium was removed after 24 h, and cells were exposed to the increasing concentrations of compounds 8q or 8r (0, 25, 50, 125, 200, 300, 400, and 500 μM) in DMEM with no serum for a further 24 h. Cell survival was measured through a CCK-8 assay. All compounds were dissolved in pure DMSO.

SH-SY5Y cells = assay type: cell-based
Method: To probe whether such a type of target compounds involves cytotoxic effects, we respectively treated HepG2 cells and SH-SY5Y cells with several concentrations of the corresponding compound. Cell viability was determined by a CCK-8 assay.
SH-SY5Y cells (human neuroblastoma cell line from American Type Culture Collection, ATCC, Manassas, VA, USA) were seeded into 96-well plates at a density of 4 × 10^4 cells/mL in Dulbecco’s modified Eagle’s medium (DMEM) supplemented with 10% FBS and 100 U/mL of penicillin/streptomycin (Gino Biomedical Technology Co. LTD., Hangzhou, China), and incubated in a humidified atmosphere containing 5% CO2 at 37 °C. […] After this incubation, 10 μL/well of CCK-8 (5 mg/mL) was added and incubated at 37 °C for 4 h. The optical density (OD) of each well was measured using an Epoch Microplate Spectrophotometer (BioTek Instruments, Inc., Winooski, VT, USA) with a test wavelength of 450, 630 nm.

T1 sequence (O42275 24-633): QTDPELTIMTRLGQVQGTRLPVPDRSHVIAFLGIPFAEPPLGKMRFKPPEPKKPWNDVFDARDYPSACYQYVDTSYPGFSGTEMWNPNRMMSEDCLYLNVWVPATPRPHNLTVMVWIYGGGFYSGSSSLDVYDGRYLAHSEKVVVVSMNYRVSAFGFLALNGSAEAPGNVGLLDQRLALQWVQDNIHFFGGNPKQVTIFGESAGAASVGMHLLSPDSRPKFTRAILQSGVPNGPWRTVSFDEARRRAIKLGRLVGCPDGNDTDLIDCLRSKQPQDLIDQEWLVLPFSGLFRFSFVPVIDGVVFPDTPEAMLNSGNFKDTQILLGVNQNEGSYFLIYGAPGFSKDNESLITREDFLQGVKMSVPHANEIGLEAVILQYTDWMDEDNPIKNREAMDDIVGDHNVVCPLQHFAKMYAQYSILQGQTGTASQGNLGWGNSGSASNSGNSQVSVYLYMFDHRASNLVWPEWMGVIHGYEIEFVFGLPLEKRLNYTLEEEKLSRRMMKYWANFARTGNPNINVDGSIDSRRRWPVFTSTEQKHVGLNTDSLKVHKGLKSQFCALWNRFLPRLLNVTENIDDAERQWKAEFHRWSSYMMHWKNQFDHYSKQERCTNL
T3 sequence (P05067 672-713): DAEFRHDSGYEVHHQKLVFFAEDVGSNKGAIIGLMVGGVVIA
T2 sequence (P81908 whole entry): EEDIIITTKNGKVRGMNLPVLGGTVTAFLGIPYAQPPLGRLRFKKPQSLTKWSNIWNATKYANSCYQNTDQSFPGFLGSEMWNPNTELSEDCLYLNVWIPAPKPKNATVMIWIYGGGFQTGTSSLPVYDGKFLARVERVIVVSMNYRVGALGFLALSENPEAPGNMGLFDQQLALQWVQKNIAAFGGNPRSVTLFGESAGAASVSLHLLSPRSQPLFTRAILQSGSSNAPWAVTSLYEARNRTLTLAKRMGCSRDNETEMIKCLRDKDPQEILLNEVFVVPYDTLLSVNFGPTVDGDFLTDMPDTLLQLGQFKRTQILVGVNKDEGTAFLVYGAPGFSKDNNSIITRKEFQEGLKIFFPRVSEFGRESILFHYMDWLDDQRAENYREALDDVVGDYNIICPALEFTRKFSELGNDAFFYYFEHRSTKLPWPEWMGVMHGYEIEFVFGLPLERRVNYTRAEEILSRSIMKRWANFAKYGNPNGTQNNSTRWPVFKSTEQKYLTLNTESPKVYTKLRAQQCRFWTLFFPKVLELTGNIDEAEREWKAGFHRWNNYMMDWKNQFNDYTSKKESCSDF

Structure (SMILES): COc1cccc(C(=O)OCCCOC(=O)c2nc(C)c(C)nc2C)c1OC [Compound 8a, 3-[(2,3-Dimethoxybenzoyl)oxy]propyl 3,5,6-trimethylpyrazine-2-carboxylate]
- Selectivity Index = IC50 (BChE)/IC50 (AChE) (AChE (from electric eel)): 2.16 × 10^4
- IC50 (AChE (from electric eel)): 0.1679 ± 0.00039 µM
- IC50 [1]: 3630 ± 70 µM

Structure (SMILES): COc1cc(OC)cc(C(=O)OCCCOC(=O)c2nc(C)c(C)nc2C)c1 [Compound 8b, 3-[(3,5-Dimethoxybenzoyl)oxy]propyl 3,5,6-trimethylpyrazine-2-carboxylate]
- Selectivity Index = IC50 (BChE)/IC50 (AChE) (AChE (from electric eel)): 1.27 × 10^6
- IC50 (AChE (from electric eel)): 0.00443 ± 0.00035 µM
- IC50 [1]: 5640 ± 380 µM
- IC50 (Aβ (1-42)): 3.66 ± 0.104 µM

Structure (SMILES): COc1ccc(C(=O)OCCCOC(=O)c2nc(C)c(C)nc2C)c(OC)c1 [Compound 8c, 3-[(2,4-Dimethoxybenzoyl)oxy]propyl 3,5,6-trimethylpyrazine-2-carboxylate]
- IC50 (AChE (from electric eel)): 0.3879 ± 0.00045 µM
- IC50 [1]: 2700 ± 30 µM
- IC50 (Aβ (1-42)): 22.54 ± 0.014 µM

Structure (SMILES): COc1ccc(C(=O)OCCCOC(=O)c2nc(C)c(C)nc2C)cc1OC [Compound 8d, 3-[(3,4-Dimethoxybenzoyl)oxy]propyl 3,5,6-trimethylpyrazine-2-carboxylate]
- Selectivity Index = IC50 (BChE)/IC50 (AChE) (AChE (from electric eel)): 1.02 × 10^6
- IC50 (AChE (from electric eel)): 0.00412 ± 0.00024 µM
- IC50 [1]: 4290 ± 120 µM
- IC50 (Aβ (1-42)): 51.81 ± 0.047 µM

Structure (SMILES): COc1cccc(OC)c1C(=O)OCCCOC(=O)c1nc(C)c(C)nc1C [Compound 8e, 3-[(2,6-Dimethoxybenzoyl)oxy]propyl 3,5,6-trimethylpyrazine-2-carboxylate]
- Selectivity Index = IC50 (BChE)/IC50 (AChE) (AChE (from electric eel)): 2.36 × 10^3
- IC50 (AChE (from electric eel)): 0.1438 ± 0.00025 µM
- IC50 [1]: 340 ± 30 µM
- IC50 (Aβ (1-42)): 55.86 ± 0.035 µM

Structure (SMILES): Cc1nc(C)c(C(=O)OCCCOC(=O)c2cccc(Cl)c2)nc1C [Compound 8f, 3-[(3-Chlorobenzoyl)oxy]propyl 3,5,6-trimethylpyrazine-2-carboxylate]
- Selectivity Index = IC50 (BChE)/IC50 (AChE) (AChE (from electric eel)): 4.95 × 10^5
- IC50 (AChE (from electric eel)): 0.00661 ± 0.00013 µM
- IC50 [1]: 3270 ± 60 µM
- IC50 (Aβ (1-42)): 45.88 ± 0.024 µM

Structure (SMILES): Cc1nc(C)c(C(=O)OCCCOC(=O)c2cccc(Br)c2)nc1C [Compound 8g, 3-[(3-Bromobenzoyl)oxy]propyl 3,5,6-trimethylpyrazine-2-carboxylate]
- Selectivity Index = IC50 (BChE)/IC50 (AChE) (AChE (from electric eel)): 6.23
- IC50 [1]: 21100 ± 460 µM

Structure (SMILES): Cc1nc(C)c(C(=O)OCCCOC(=O)c2ccc(Br)cc2)nc1C [Compound 8h, 3-[(4-Bromobenzoyl)oxy]propyl 3,5,6-trimethylpyrazine-2-carboxylate]
- Selectivity Index = IC50 (BChE)/IC50 (AChE) (AChE (from electric eel)): 2.62
- IC50 [1]: 2490 ± 290 µM

Structure (SMILES): Cc1nc(C)c(C(=O)OCCCOC(=O)c2ccc(F)cc2)nc1C [Compound 8i, 3-[(4-Fluorobenzoyl)oxy]propyl 3,5,6-trimethylpyrazine-2-carboxylate]
- Selectivity Index = IC50 (BChE)/IC50 (AChE) (AChE (from electric eel)): 1.14 × 10^2
- IC50 (Aβ (1-42)): 211.18 ± 0.039 µM

Structure (SMILES): COc1ccc(C(=O)OCCCOC(=O)c2nc(C)c(C)nc2C)cc1F [Compound 8j, 3-[(3-Fluoro-4-methoxybenzoyl)oxy]propyl 3,5,6-trimethylpyrazine-2-carboxylate]
- Selectivity Index = IC50 (BChE)/IC50 (AChE) (AChE (from electric eel)): 2.97
- IC50 [1]: 857 ± 2 µM
- IC50 (Aβ (1-42)): 7.12 ± 0.012 µM

Structure (SMILES): Cc1nc(C)c(C(=O)OCCCOC(=O)c2cccc(F)c2)nc1C [Compound 8k, 3-[(3-Fluorobenzoyl)oxy]propyl 3,5,6-trimethylpyrazine-2-carboxylate]
- Selectivity Index = IC50 (BChE)/IC50 (AChE) (AChE (from electric eel)): 9.49
- IC50 [1]: 5490 ± 150 µM
- IC50 (Aβ (1-42)): 5.1 ± 0.04 µM

Structure (SMILES): COc1cc(CC(=O)OCCCOC(=O)c2nc(C)c(C)nc2C)cc(OC)c1OC [Compound 8l, 3-{[(3,4,5-Trimethoxyphenyl)acetyl]oxy}propyl 3,5,6-trimethylpyrazine-2-carboxylate]
- Selectivity Index = IC50 (BChE)/IC50 (AChE) (AChE (from electric eel)): 1.31 × 10^4
- IC50 (AChE (from electric eel)): 0.3034 ± 0.00026 µM
- IC50 [1]: 3960 ± 260 µM
- IC50 (Aβ (1-42)): 77.45 ± 0.029 µM

Structure (SMILES): Cc1nc(C)c(C(=O)OCCCOC(=O)Cc2ccc(Br)cc2)nc1C [Compound 8m, 3-{[(4-Bromophenyl)acetyl]oxy}propyl 3,5,6-trimethylpyrazine-2-carboxylate]
- Selectivity Index = IC50 (BChE)/IC50 (AChE) (AChE (from electric eel)): 52.17
- IC50 (Aβ (1-42)): 200.84 ± 0.016 µM

Structure (SMILES): COc1ccc(CC(=O)OCCCOC(=O)c2nc(C)c(C)nc2C)cc1F [Compound 8n, 3-{[(3-Fluoro-4-methoxyphenyl)acetyl]oxy}propyl 3,5,6-trimethylpyrazine-2-carboxylate]
- Selectivity Index = IC50 (BChE)/IC50 (AChE) (AChE (from electric eel)): 20.67
- IC50 [1]: 3060 ± 340 µM

Structure (SMILES): COc1ccc(/C=C/C(=O)OCCCOC(=O)c2nc(C)c(C)nc2C)cc1OC [Compound 8o, 3-{[(2E)-3-(3,4-Dimethoxyphenyl)prop-2-enoyl]oxy}propyl 3,5,6-trimethyl-pyrazine-2-carboxylate]
- Selectivity Index = IC50 (BChE)/IC50 (AChE) (AChE (from electric eel)): 1.23 × 10^6
- IC50 (AChE (from electric eel)): 0.00324 ± 0.0001 µM
- IC50 [1]: 3970 ± 100 µM
- IC50 (Aβ (1-42)): 45.29 ± 0.033 µM

Structure (SMILES): COc1cc(/C=C/C(=O)OCCCOC(=O)c2nc(C)c(C)nc2C)cc(OC)c1OC [Compound 8p, 3-{[(2E)-3-(3,4,5-Trimethoxyphenyl)prop-2-enoyl]oxy}propyl 3,5,6-tri-methylpyrazine-2-carboxylate]
- Selectivity Index = IC50 (BChE)/IC50 (AChE) (AChE (from electric eel)): 4.30 × 10^4
- IC50 (AChE (from electric eel)): 0.09351 ± 0.0002 µM
- IC50 [1]: 4020 ± 30 µM
- IC50 (Aβ (1-42)): 71.28 ± 0.044 µM

Structure (SMILES): Nc1c2c(nc3ccccc13)CCCC2 [Tacrine, reference compound]
- Cell viability (HepG2 cells; 25 µM): 99.78 ± 1.07 ^ns percentage of control
- Cell viability (HepG2 cells; 50 µM): 95.02 ± 2.30 ^ns percentage of control
- Cell viability (HepG2 cells; 125 µM): 83.72 ± 0.73 percentage of control
- Cell viability (HepG2 cells; 200 µM): 81.80 ± 1.86 percentage of control
- Cell viability (HepG2 cells; 300 µM): 74.32 ± 3.93 percentage of control
- Cell viability (HepG2 cells; 400 µM): 23.61 ± 0.05 percentage of control
- Cell viability (HepG2 cells; 500 µM): 19.92 ± 0.05 percentage of control
- Cell viability (SH-SY5Y cells; 25 µM): 87.89 ± 0.85 ^ns percentage of control
- Cell viability (SH-SY5Y cells; 50 µM): 88.17 ± 1.55 ^ns percentage of control
- Cell viability (SH-SY5Y cells; 125 µM): 75.42 ± 0.78 percentage of control
- Cell viability (SH-SY5Y cells; 200 µM): 48.75 ± 0.43 percentage of control
- Cell viability (SH-SY5Y cells; 300 µM): 43.39 ± 2.69 percentage of control
- Cell viability (SH-SY5Y cells; 400 µM): 34.69 ± 2.86 percentage of control
